# Experimental data reported in PubChem BioAssay AID462 (Columbia University Molecular Screening Center, 2006).
# Calls of active or inactive are those of the source.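 Rule for the calls: active = activity score of at least 10, based on curve potency, or else summed standardized inhibition across doses; inactive = the rest.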
# Test system: not listed separately
# Assay: blockers of TNFa-triggered NFkappaB nuclear entry – imaging, HUVEC, TNFalpha stimulation, p65 immunofluorescence, confirmation (AID 462)
# Settings: HUVEC TNFa-induced p65 nuclear translocation, imaging; at 8 µM (top of the series)
row,SMILES,inhibition
1,COc1ccc(CC(=O)Nc2ccc(OC)c(NC(=O)c3ccco3)c2)cc1,-6.4% (inactive)
2,O=C(COc1ccc2ccccc2c1)N1CCN(C2CCN(Cc3ccccc3)CC2)CC1,3.5% (inactive)
3,O=C(CSc1nnc2ncccn12)N1CCCCCC1,-3.2% (inactive)
4,Cc1ccc(Cn2ncc3c(N4CCN(Cc5ccc(Cl)cc5)CC4)ncnc32)cc1,-0.2% (inactive)
5,O=C(COC(=O)c1ccccc1Oc1ccccc1)NC1CCS(=O)(=O)C1 (configuration not stated),-1.2% (inactive)
6,Cn1c(=O)c2c(nc(CN3CCOCC3)n2CC(O)CO)n(C)c1=O (configuration not stated),3.2% (inactive)
7,CCOc1ccccc1C(=O)N1CCN(c2cccc(Cl)c2)CC1,18.5% (inactive)
8,CC1=CC2=C(OC1N(C)C)c1cccc3cccc(c13)C2=O (configuration not stated),5.4% (inactive)
9,N#Cc1c(N)n(CCOC(=O)c2ccc(Cl)cc2)c2nc3ccccc3nc12,6.7% (inactive)
10,Cc1cccc(N2CN=c3s/c(=C\c4ccncc4)c(=O)n3C2)c1,-7.5% (inactive)
11,O=C(NCCCN1CCCC1=O)C1CCN(S(=O)(=O)N2CCOCC2)CC1,-10% (inactive)
12,COc1cc(C(O)c2nc3ccccc3n2C)cc(OC)c1OC (configuration not stated),-5.7% (inactive)
13,COc1cc([C@@H]2c3cc4c(cc3[C@H](O)[C@H]3COC(=O)[C@H]23)OCO4)cc(OC)c1OC,26.3%
14,CCCCOc1ccc(-c2nnn(CC(=O)Nc3ncc(CC(=O)OCC)s3)n2)cc1,-1.5% (inactive)
15,Cc1csc(SCCn2c(N3CCCC3)nc3c2c(=O)[nH]c(=O)n3C)n1,-7.5% (inactive)
16,CCOc1cc(C2C(C#N)=C(N)Oc3n[nH]c(CC)c32)ccc1OCCN1CCOCC1 (configuration not stated),-2.3% (inactive)
17,COc1ccc2c(c1)[nH]c1c(=O)n(CC3CCCO3)cnc12 (configuration not stated),-2.7% (inactive)
18,CCOC(=O)c1cc2c(=O)n3cccc(C)c3nc2n(CCc2ccccc2)c1=N,17.3% (inactive)
19,COc1ccc(N(C)C(=O)CCS(=O)(=O)c2cccc3nonc23)cc1,-0.8% (inactive)
20,COc1ccc(N2CCN(CCCNC(=O)C3CCCN(S(=O)(=O)c4cnc[nH]4)C3)CC2)cc1 (configuration not stated),3.2% (inactive)
21,COc1ccc(C(NC(=O)c2ccco2)c2ccc(OC)c(OC)c2)cc1 (configuration not stated),-3.1% (inactive)
22,COc1ccc(-n2c(Cc3cccn3C)nnc2SCC(=O)Nc2cccc(Cl)c2)cc1,3.9% (inactive)
23,Cc1c(C2Nc3ccccc3NC3=C2C(=O)CC(C)(C)C3)cnn1C (configuration not stated),4.8% (inactive)
24,COc1cc(C2C(C#N)=C(N)Oc3cc(N)ccc32)cc(OC)c1OC (configuration not stated),23.6% (inactive)
25,CCOc1ccc(S(=O)(=O)N(C)C)cc1-c1nc2c(C(C)(C)C)nn(C)c2c(=O)[nH]1,-7.2% (inactive)

row,SMILES,inhibition
1,O=C(CSc1nnc(SCc2ccc(Cl)cc2)s1)N1CCN(C(=O)c2ccco2)CC1,5.9% (inactive)
2,CCOc1ccc(C2=Nn3c(nnc3-c3ccccc3OC)SC2)cc1,19.7%
3,CN(C(=O)COc1cc(=O)n(C)c2ccccc12)c1ccc(Br)cc1,2.8% (inactive)
4,O=C1[C@@H]2C(c3ccccc3Cl)=NO[C@@H]2C(=O)N1Cc1ccccc1,0% (inactive)
5,COc1ccc(-c2nc3c(c(SCC(=O)N4CCOCC4)n2)COC(C)(C)C3)cc1,1.1% (inactive)
6,COc1ccc(OC)c(C2C(C#N)=C(N)Oc3cc(C)n(Cc4ccccn4)c(=O)c32)c1 (configuration not stated),4.2% (inactive)
7,COc1ccc(OCC(=O)OCCN(C)C)cc1,6.8% (inactive)
8,CCN1C(=C2C(=O)c3ccccc3C2=O)C=Cc2ccccc21,-5% (inactive)
9,CC12C(=O)N(CCC(=O)O)C(=O)C1C1C=CC2C1 (configuration not stated),-5.1% (inactive)
10,Cc1cc(C)n(CC2CC(=O)N(c3cc(Cl)cc(Cl)c3)C2=O)n1 (configuration not stated),6.8% (inactive)
11,Cn1c(C(=O)NCCC2=CCCCC2)cc2c(=O)n3ccccc3nc21,-8% (inactive)
12,COc1ccc(CNC(=O)COC(=O)c2n[nH]c3ccccc23)cc1OC,-3.8% (inactive)
13,c1cncc(C2Nc3ccccc3-c3nc4ccccc4n32)c1 (configuration not stated),-5% (inactive)
14,CN1CCN(c2oc(COc3ccc(-c4ccccc4)cc3)nc2C#N)CC1,2.4% (inactive)
15,O=C(Nc1ccc2oc(-c3ccncc3)nc2c1)c1cccs1,0.6% (inactive)
16,O=C(C1CCC(N2C(=O)C3CC=CCC3C2=O)CC1)N1CCCCC1 (configuration not stated),-2.3% (inactive)
17,CCn1c(C(=O)N2CCCC(C(=O)O)C2)cc2sccc21 (configuration not stated),1.8% (inactive)
18,COc1ccccc1CNC(=O)C1CCCN(S(=O)(=O)c2cnc[nH]2)C1 (configuration not stated),-1.1% (inactive)
19,Cc1cc(C(C)(C)C)c(O)c(C)c1CC1=NCCN1,7.9% (inactive)
20,CCOC(=O)CCNc1n[nH]c(=O)[nH]c1=O,14.4% (inactive)
21,CCn1c(CSc2ncccn2)nnc1SCC(=O)N1c2ccccc2CC1C (configuration not stated),-6.1% (inactive)
22,COc1ccc(OC)c(NS(=O)(=O)c2ccc(N3CCCC3=O)cc2)c1,15.5% (inactive)
23,CC(C)CNS(=O)(=O)c1ccc(CCC(=O)NCc2ccco2)cc1,-5.6% (inactive)
24,Clc1ccc(-c2nnc3sc(-c4ccc(Br)o4)nn23)cc1,3.4% (inactive)
25,CC1CCCCN1CCNC(=O)c1ccc2c(=O)n(CCc3ccccc3)c(=O)[nH]c2c1 (configuration not stated),4.4% (inactive)

row,SMILES,inhibition
1,COc1cc(C)nc(OCCNC(=O)COc2ccc(Cl)cc2C)n1,0.4% (inactive)
2,COc1ccccc1-c1nnc2n1N=C(c1ccc(O)c(O)c1)CS2,23% (inactive)
3,COC(=O)c1ccc(N2C(=O)CC(N3CCN(C(=O)c4ccco4)CC3)C2=O)cc1 (configuration not stated),11.1% (inactive)
4,O=C(O)c1ccc(COCC(F)(F)C(F)F)o1,7.3% (inactive)
5,CCC1Oc2ccccc2N(CC(=O)Nc2ccc(OC)cc2OC)C1=O (configuration not stated),-5% (inactive)
6,O=C(CN(Cc1ccco1)C(=O)CNS(=O)(=O)c1ccc(Cl)cc1)NCc1ccc(F)cc1,-0.8% (inactive)
7,COc1ccc(S(=O)(=O)N2CCCC2C(=O)Nc2ccc(C)cc2)cc1 (configuration not stated),-0.4% (inactive)
8,CCC(NC(=O)Nc1nnc(C(F)(F)F)s1)(C(F)(F)F)C(F)(F)F,-22.3% (inactive)
9,Nn1c(SCC(=O)Nc2ccc(F)cc2)nnc1-c1cccnc1,-0.4% (inactive)
10,COc1ccccc1CN1CC(C(=O)N2CCN(c3ccc(F)cc3)CC2)CC1=O (configuration not stated),1.4% (inactive)
11,COC(=O)CCC(=O)Nc1cccc(Cl)c1,-0.6% (inactive)
12,CC(C)CCNC(=O)NC(=O)CSc1nnc(COc2ccccc2Cl)o1,-7.1% (inactive)
13,Cc1nc(NC2=NCN(CCc3ccccc3)CN2)nc2c(C)cccc12,1% (inactive)
14,Cc1nn(Cc2ccccc2)c(C)c1NC(=O)CCC(=O)O,-7.5% (inactive)
15,CC(C)OC(=O)CSc1nnc(Cc2ccccc2)n1Cc1ccco1,-1.5% (inactive)
16,Nc1nc(C(=O)N2CCOCC2)nn1S(=O)(=O)c1ccc(Cl)cc1,-1.1% (inactive)
17,COc1cccc(N2CCN(c3ncnc4c3[nH]c3ccccc34)CC2C)c1 (configuration not stated),66.1%
18,CC[C@]1(O)CC2CN(CCc3c([nH]c4ccccc34)[C@@](C(=O)OC)(c3cc4c(cc3OC)N(C=O)[C@H]3[C@@](O)(C(=O)OC)[C@H](OC(C)=O)[C@]5(CC)C=CCN6CC[C@]43[C@@H]65)C2)C1 (some centres not stated),17.2%
19,Cc1nc(N)[nH]c(=O)c1CCC(=O)OCC(C)C,0% (inactive)
20,Cc1ccc(-n2c(=O)[nH]c3c(C(N)=O)nc(CC(C)C)nc32)cc1,-5.2% (inactive)
21,COC(=O)CCC(NC(=O)c1cc(-c2ccc3c(c2)OCCO3)oc1C)C(=O)OC (configuration not stated),-1.9% (inactive)
22,Cc1ccccc1CN1CCNC1=O,-8% (inactive)
23,CCn1c(C(C#N)/C(=N\S(=O)(=O)c2cccs2)c2ccccc2)nc2ccccc21 (configuration not stated),-1.6% (inactive)
24,COc1ccc(/C(O)=C2/C(=O)C(=O)N(Cc3ccco3)C2c2cccs2)cc1 (configuration not stated),4.7% (inactive)

# Test system: HUVEC TNFa-induced p65 nuclear translocation, imaging
# Assay: as above
# Settings: not given
row,SMILES,IC50 [nM]
1,C[C@H]1CCC/C=C/C2C[C@H](O)CC2[C@H](O)/C=C/C(=O)O1 (some centres not stated),40
2,O=S1(=O)Nc2c(ccc3cccnc23)-c2ccccc21,2070
3,C=CS(=O)(=O)c1ccc(Oc2ccc(S(=O)(=O)C=C)cc2)cc1,1460
